This note sets out measurements from US20240287080A1 (IDEAYA Biosciences Inc., priority 2021, published 2024).

T1 sequence (O75417 1-899): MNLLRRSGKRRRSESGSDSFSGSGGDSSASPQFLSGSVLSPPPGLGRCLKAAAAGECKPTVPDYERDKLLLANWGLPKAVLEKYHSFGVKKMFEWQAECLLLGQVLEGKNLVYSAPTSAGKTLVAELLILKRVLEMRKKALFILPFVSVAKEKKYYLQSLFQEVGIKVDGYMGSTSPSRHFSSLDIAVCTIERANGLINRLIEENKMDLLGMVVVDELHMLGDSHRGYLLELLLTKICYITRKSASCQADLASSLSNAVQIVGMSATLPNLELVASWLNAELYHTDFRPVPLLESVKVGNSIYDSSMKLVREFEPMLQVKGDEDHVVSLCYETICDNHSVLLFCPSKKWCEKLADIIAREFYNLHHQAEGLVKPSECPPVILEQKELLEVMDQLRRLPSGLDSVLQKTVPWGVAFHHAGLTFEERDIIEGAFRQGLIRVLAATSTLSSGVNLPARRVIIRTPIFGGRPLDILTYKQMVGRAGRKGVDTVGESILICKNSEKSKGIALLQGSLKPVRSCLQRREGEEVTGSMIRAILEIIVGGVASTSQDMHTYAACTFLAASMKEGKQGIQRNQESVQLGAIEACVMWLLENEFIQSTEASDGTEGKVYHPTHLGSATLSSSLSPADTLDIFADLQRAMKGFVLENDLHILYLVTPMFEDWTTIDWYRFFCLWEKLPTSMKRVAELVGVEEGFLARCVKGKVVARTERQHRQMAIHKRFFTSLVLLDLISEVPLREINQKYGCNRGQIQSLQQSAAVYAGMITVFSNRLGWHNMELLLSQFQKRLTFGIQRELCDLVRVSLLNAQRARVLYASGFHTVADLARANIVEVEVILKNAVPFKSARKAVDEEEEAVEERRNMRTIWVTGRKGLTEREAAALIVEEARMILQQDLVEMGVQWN

The first test has as its target T1, Pol theta (1-899) (Homo sapiens, UniProt O75417).
T1 construct: Pol theta (1-899) (5 nM) in assay buffer
The test is described as follows: Pol theta ATPase activity, NADH oxidation-coupled enzymatic assay (ATPase NADH coupling: Standard Screening: hPolQ). Format: biochemical. The note with it: Pol theta (1-899) 5 nM, NADH oxidation-coupled ATPase assay; compounds of Table 3. A digest of the protocol:
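NADH-coupled ATPase readout: 5 nM Pol theta (1-899) preincubated 15 min with 10-point compound series in Tris pH 7.80, KCl, MgCl2, DTT, BSA, Tween, glycerol, then 100 μM ATP, 300 nM 50-mer poly-dT ssDNA, NADH, PEP, LDH and PK added (stock levels). A340 followed 60 min; slopes fit four-parameter for IC50.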
The IC50 is the concentration needed to halve the response being measured. High values mean a need for much substance, low ones inhibition by little substance. Regarding `COc1nnc(NC(=O)c2cnc(C)cc2-c2cccnc2C)s1` [Example 461, N-(5-methoxy-1,3,4-thiadiazol-2-yl)-2,6′-dimethyl-[3,4′-bipyridine]-3′-carboxamide], the IC50 is 1000 to 10000 nM.
Take `COc1cnc(C)cc1-c1cc(C)ncc1C(=O)Nc1nnc(OC(C)COCC(F)(F)F)s1` (stereo not drawn) [Example 241, 5′-methoxy-2′,6-dimethyl-N-(5-((1-(2,2,2-trifluoroethoxy)propan-2-yl)oxy)-1,3,4-thiadiazol-2-yl)-[4,4′-bipyridine]-3-carboxamide]: the IC50 was no more than 200 nM.
On the same count and under the same terms, the same measure for `COc1cnc(Cl)cc1-c1cc(C)ncc1C(=O)Nc1nnc(O[C@@H]2CC[C@@]23CCOC3)s1` (racemic) [Example 295, rac-N-(5-(((1R,4S)-6-oxaspiro[3.4]octan-1-yl)oxy)-1,3,4-thiadiazol-2-yl)-2′-chloro-5′-methoxy-6-methyl-[4,4′-bipyridine]-3-carboxamide]: no more than 200 nM.
Same read-out and setting: the same measure for `COc1cnc(Cl)cc1-c1cc(C)ncc1C(=O)Nc1nnc(O[C@H]2CC[C@@]23CCOC3)s1` (racemic) [Example 292, rac-N-(5-(((1S,4S)-6-oxaspiro[3.4]octan-1-yl)oxy)-1,3,4-thiadiazol-2-yl)-2′-chloro-5′-methoxy-6-methyl-[4,4′-bipyridine]-3-carboxamide]: no more than 200 nM.
`COc1cnc(Br)cc1-c1cc(C)ncc1C(=O)Nc1nnc(O[C@H]2CC[C@@H](CO)CC2)s1` [Example 268, 2′-bromo-N-(5-(((1s,4s)-4-(hydroxymethyl)cyclohexyl)oxy)-1,3,4-thiadiazol-2-yl)-5′-methoxy-6-methyl-[4,4′-bipyridine]-3-carboxamide]: the IC50 was no more than 200 nM.
Same read-out and setting: the same measure for `COc1nnc(NC(=O)c2cnc(C)cc2-c2ccnc(C)c2)s1` [Example 404, N-(5-methoxy-1,3,4-thiadiazol-2-yl)-2′,6-dimethyl-[4,4′-bipyridine]-3-carboxamide]: 1000 to 10000 nM; for `COc1cnc(C)c(F)c1-c1cc(C)ncc1C(=O)Nc1nnc(O[C@H]2CCC[C@@H](O)C2)s1` (single isomer, unassigned) [Example 236]: no more than 200 nM; for `COc1nnc(NC(=O)c2cnc(C)cc2-c2ccc3c(c2)OCO3)s1` [Example 409, 4-(2H-1,3-benzodioxol-5-yl)-N-(5-methoxy-1,3,4-thiadiazol-2-yl)-6-methylpyridine-3-carboxamide]: 500 to 1000 nM.
On to `COc1cnc(Cl)cc1-c1cc(C)ncc1C(=O)Nc1nnc(O[C@H]2CO[C@H]3OCC[C@H]32)s1` [Example 262, 2′-chloro-N-(5-(((3R,3aS,6aR)-hexahydrofuro[2,3-b]furan-3-yl)oxy)-1,3,4-thiadiazol-2-yl)-5′-methoxy-6-methyl-[4,4′-bipyridine]-3-carboxamide], for which the IC50 is no more than 200 nM.
On the same count and under the same terms, with `COc1nnc(NC(=O)c2cnc(C)cc2-c2cccc(NS(C)(=O)=O)c2)s1` [Example 400, 4-(3-methanesulfonamidophenyl)-N-(5-methoxy-1,3,4-thiadiazol-2-yl)-6-methylpyridine-3-carboxamide] the figure was 1000 to 10000 nM; with `COc1cnc(Cl)cc1-c1cc(C)ncc1C(=O)Nc1nnc(OC2([C@@H]3CCOC3)CC2)s1` (single isomer, unassigned) [Example 299], no more than 200 nM.
The same measure, in the same setting: with `COc1nnc(NC(=O)c2cnc(C)cc2-c2ccc(C(F)(F)F)cc2)s1` [Example 355, N-(5-methoxy-1,3,4-thiadiazol-2-yl)-methyl4-(4-(trifluoromethyl)phenyl) nicotinamide] the figure was 1000 to 10000 nM; with `COc1cnc(Cl)cc1-c1cc(C)ncc1C(=O)Nc1nnc(OC2CCN(C3COC3)CC2)s1` [Example 280, 2′-chloro-5′-methoxy-6-methyl-N-(5-((1-(oxetan-3-yl)piperidin-4-yl)oxy)-1,3,4-thiadiazol-2-yl)-[4,4′-bipyridine]-3-carboxamide], no more than 200 nM; with `COc1nnc(NC(=O)c2cnc(C)cc2-c2cnnc(C)c2)s1` [Example 440, N-(5-methoxy-1,3,4-thiadiazol-2-yl)-6-methyl-4-(6-methylpyridazin-4-yl)nicotinamide], 1000 to 10000 nM.
Regarding `COc1ccc(-c2cc(C)ncc2C(=O)Nc2nnc(OC)s2)c(OC)n1` [Example 435, 2,6-dimethoxy-N-(5-methoxy-1,3,4-thiadiazol-2-yl)-6′-methyl-[3,4′-bipyridine]-3′-carboxamide], the IC50 is 200 to 500 nM.
On the same count and under the same terms, the same measure for `COc1nnc(NC(=O)c2cc(OC)c(C)cc2-c2cc(Cl)ncc2OC)s1` [Example 301, 2-(2-chloro-5-methoxypyridin-4-yl)-5-methoxy-N-(5-methoxy-1,3,4-thiadiazol-2-yl)-4-methylbenzamide]: no more than 200 nM.
On the same count and under the same terms, with `COc1cc(C)c(-c2cc(C)ncc2C(=O)Nc2nnc(OC)s2)cn1` [Example 463, 6-methoxy-N-(5-methoxy-1,3,4-thiadiazol-2-yl)-4,6′-dimethyl-[3,4′-bipyridine]-3′-carboxamide] the figure was 1000 to 10000 nM; with `COc1nnc(NC(=O)c2cnc(C)cc2-c2ccc3ccn(C)c3c2)s1` [Example 480, N-(5-methoxy-1,3,4-thiadiazol-2-yl)-6-methyl-4-(1-methyl-1H-indol-6-yl)pyridine-3-carboxamide], 1000 to 10000 nM; with `COc1nnc(NC(=O)c2cnc(C)cc2-c2cncc(C(=O)NC3CC3)c2)s1` [Example 403, N5-cyclopropyl-N3′-(5-methoxy-1,3,4-thiadiazol-2-yl)-6′-methyl-[3,4′-bipyridine]-3′,5-dicarboxamide], 1000 to 10000 nM.

The same test, now with this note: Table 4; Pol theta (1-899) 5 nM, ATP, dT50 ssDNA.
In the case of `CCc1cnc(Cl)cc1-c1cc(C)ncc1C(=O)Nc1nnc(OC)s1` [Example 49, 2′-chloro-5′-ethyl-N-(5-methoxy-1,3,4-thiadiazol-2-yl)-6-methyl-(4,4′-bipyridine)-3-carboxamide], the IC50 is no more than 200 nM.
With `COc1cnc(Cl)cc1-c1cc(C)ncc1C(=O)Nc1nnc(OC2CCS(=O)(=O)CC2)s1` [Example 25, 2′-chloro-N-(5-((1,1-dioxidotetrahydro-2H-thiopyran-4-yl)oxy)-1,3,4-thiadiazol-2-yl)-5′-methoxy-6-methyl-(4,4′-bipyridine)-3-carboxamide], the IC50 is no more than 200 nM.
Take `COc1nnc(NC(=O)c2cnc(C)cc2-c2cc(Cl)ncc2CO)s1` [Example 72, 2′-chloro-5′-(hydroxymethyl)-N-(5-methoxy-1,3,4-thiadiazol-2-yl)-6-methyl-(4,4′-bipyridine)-3-carboxamide]: the IC50 fell in the range of 500 to 1000 nM.
On the same count and under the same terms, with `COc1nnc(NC(=O)c2cnc(C)cc2-c2cc(C)ncc2Cl)s1` [Example 41, 5′-chloro-N-(5-methoxy-1,3,4-thiadiazol-2-yl)-2′,6-dimethyl-(4,4′-bipyridine)-3-carboxamide] the figure was no more than 200 nM.
Same read-out and setting: with `COc1cnc(Cl)c(F)c1-c1cc(C)ncc1C(=O)Nc1nnc(OC2COC2)s1` [Example 60, 2′-chloro-3′-fluoro-5′-methoxy-6-methyl-N-(5-(oxetan-3-yloxy)-1,3,4-thiadiazol-2-yl)-(4,4′-bipyridine)-3-carboxamide] the figure was no more than 200 nM.
On the same count and under the same terms, the same measure for `COc1nnc(NC(=O)c2cnc(C)cc2-c2c(Cl)cccc2OC)s1` [Example 35, 4-(2-chloro-6-methoxyphenyl)-N-(5-methoxy-1,3,4-thiadiazol-2-yl)-6-methylnicotinamide]: 200 to 500 nM.

The same test, now with this note: Table 5; Pol theta (1-899) 5 nM, ATP, dT50 ssDNA.
In the case of `COc1cnc(Cl)cc1-c1cc(C)ncc1C(=O)Nc1nnc(O[C@@H]2CCO[C@H]2C)s1` (single isomer, unassigned) [Example 116], the IC50 is no more than 200 nM.
`Cc1cc(-c2cc(Cl)ncc2OC(F)F)c(C(=O)Nc2nnc(O[C@H]3CC[C@H](O)CC3)s2)cn1` [Example 203, 2′-chloro-5′-(difluoromethoxy)-N-(5-(((1r,4r)-4-hydroxycyclohexyl)oxy)-1,3,4-thiadiazol-2-yl)-6-methyl-(4,4′-bipyridine)-3-carboxamide] gave an IC50 of no more than 200 nM.
`COc1nnc(NC(=O)c2cnc(C)cc2-c2cc3cn[nH]c3cc2OC)s1` [Example 104, N-(5-methoxy-1,3,4-thiadiazol-2-yl)-4-(6-methoxy-1H-indazol-5-yl)-6-methylnicotinamide] returned a half-inhibitory concentration (IC50) of 200 to 500 nM.
Same read-out and setting: the same measure for `Cc1cc(-c2cc(Br)ncc2OC(F)F)c(C(=O)Nc2nnc(O[C@@H]3CCOC3)s2)cn1` [Example 195, (R)-2′-bromo-5′-(difluoromethoxy)-6-methyl-N-(5-((tetrahydrofuran-3-yl)oxy)-1,3,4-thiadiazol-2-yl)-(4,4′-bipyridine)-3-carboxamide]: no more than 200 nM; for `COc1cnc(Cl)cc1-c1cc(C)ncc1C(=O)Nc1nnc(O[C@@H]2C[C@H]3CC[C@@H]2O3)s1` (single isomer, unassigned) [Example 216]: no more than 200 nM.
The compound `Cc1cc(-c2cc(Br)ncc2OC(F)F)c(C(=O)Nc2nnc(O[C@H]3CC[C@H](O)CC3)s2)cn1` [Example 205, 2′-bromo-5′-(difluoromethoxy)-N-(5-(((1r,4r)-4-hydroxycyclohexyl)oxy)-1,3,4-thiadiazol-2-yl)-6-methyl-(4,4′-bipyridine)-3-carboxamide] had an IC50 of no more than 200 nM.

The same test, now with this note: Table 5; values given as bound; Pol theta (1-899) 5 nM, ATP, dT50 ssDNA.
`COc1nnc(NC(=O)c2cn3c(C)cnc3cc2-c2c(F)cccc2OC)s1` [Example 120, 7-(2-fluoro-6-methoxyphenyl)-N-(5-methoxy-1,3,4-thiadiazol-2-yl)-3-methylimidazo(1,2-a)pyridine-6-carboxamide] had an IC50 greater than 10000 nM.
Still for that read-out and setting: with `COc1nnc(NC(=O)c2cnc(CN3CC(OC)C3)cc2-c2cc(Cl)ncc2OC)s1` [Example 144, 2′-chloro-5′-methoxy-N-(5-methoxy-1,3,4-thiadiazol-2-yl)-6-((3-methoxyazetidin-1-yl)methyl)-(4,4′-bipyridine)-3-carboxamide] the figure was greater than 10000 nM.
